Data on one molecule can be found in publication PMC8584989 (International Journal of Molecular Sciences, 2021).

pIC50: −log10 of the molar value. Where two headings read alike, the source gives them in different places. Bounds are passed on as bounds.

For one series, the target named is T1, ABCG2 (Homo sapiens, UniProt Q9UNQ0).
T1 sequence (Q9UNQ0 1-655): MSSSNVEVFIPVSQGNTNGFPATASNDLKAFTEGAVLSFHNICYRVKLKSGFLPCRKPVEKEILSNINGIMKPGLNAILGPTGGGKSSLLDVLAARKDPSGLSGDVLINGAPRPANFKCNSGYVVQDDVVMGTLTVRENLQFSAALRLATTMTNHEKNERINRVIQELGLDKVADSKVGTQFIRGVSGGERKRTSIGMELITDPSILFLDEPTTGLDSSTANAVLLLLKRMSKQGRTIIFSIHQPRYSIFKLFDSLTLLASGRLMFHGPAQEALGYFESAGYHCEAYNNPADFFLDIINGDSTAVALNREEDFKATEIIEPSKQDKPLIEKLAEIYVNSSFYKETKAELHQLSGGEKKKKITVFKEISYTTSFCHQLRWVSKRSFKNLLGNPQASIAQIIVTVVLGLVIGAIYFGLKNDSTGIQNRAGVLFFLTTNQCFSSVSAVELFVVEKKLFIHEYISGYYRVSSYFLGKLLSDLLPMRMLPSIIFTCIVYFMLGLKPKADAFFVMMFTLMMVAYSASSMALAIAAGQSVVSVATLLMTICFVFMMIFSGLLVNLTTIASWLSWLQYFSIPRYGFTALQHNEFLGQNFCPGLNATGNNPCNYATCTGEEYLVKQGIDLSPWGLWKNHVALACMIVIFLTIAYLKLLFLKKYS
Description: Inhibitory accumulation assay in MDCKII-ABCG2 cells. The format is cell-based. The procedure: (§1) Accumulation assays were performed as described previously. […] The daunorubicin and mitoxantrone accumulation assays were performed in above mentioned cell lines and were also adopted to primary NSCLC cultures. […] Cells were incubated up to 70-80% confluence for approximately 24 h. […] The cells there trypsinized on ice, resuspended with 2% FBS in cold PBS solution and then fluorescence was detected using flow cytometer (BD FACSCanto II, Allschwil, Switzerland). […] For data presentation, the ratios of relative fluorescence units (RFUs) from treated samples to RFUs from vehicle-treated (control) cells were computed generating “relative substrate accumulation”.

Another series has as its target ABCC1 (Homo sapiens, UniProt P33527). The series is described as follows: Inhibitory accumulation assay in MDCKII-ABCC1 cells. It counts as cell-based. The procedure: as §1
The target of another series is T2, CYP2C9 (Homo sapiens, UniProt P11712).
T2 construct: purchased Thermo Fisher Scientific
T2 sequence (P11712 whole entry): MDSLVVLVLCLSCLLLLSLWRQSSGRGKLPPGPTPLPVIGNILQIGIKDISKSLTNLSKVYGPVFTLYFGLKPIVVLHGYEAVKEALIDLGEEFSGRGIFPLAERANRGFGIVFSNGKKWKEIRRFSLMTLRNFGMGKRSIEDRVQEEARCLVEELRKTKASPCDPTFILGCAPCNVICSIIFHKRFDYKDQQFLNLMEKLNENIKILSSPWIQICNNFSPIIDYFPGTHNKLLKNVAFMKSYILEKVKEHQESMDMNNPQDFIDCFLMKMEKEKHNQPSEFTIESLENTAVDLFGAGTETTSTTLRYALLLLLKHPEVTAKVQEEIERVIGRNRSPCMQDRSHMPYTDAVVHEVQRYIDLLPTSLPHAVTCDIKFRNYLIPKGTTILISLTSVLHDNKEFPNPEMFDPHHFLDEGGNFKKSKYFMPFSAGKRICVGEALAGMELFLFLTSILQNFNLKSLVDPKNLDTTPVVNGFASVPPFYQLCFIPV
The series is described as follows: Vivid CYP450 Screening Kit, recombinant CYP2C9. The format is in vitro ADME. Conditions: recombinant enzyme; read-out: CYP2C9 inhibition IC50. How it is done:
(§2) CYP inhibitory assay was performed using Vivid CYP450 screening kit as described previously. The kits consist of microsomal fraction containing human CYP isoforms, human CYP reductase and in several cases cytochrome b5. Experiments were performed following the manufacturer’s protocol on black 96-well plates using kinetic mode. […] Then, the master mix (CYP isoenzyme with an NADPH regeneration system in buffer) was added in each well and plate was pre-incubated for 10 min. The reaction was started with the mixture of NADP^+ and Vivid substrate and the fluorescence of samples was measured in 1 min interval for 60 min using an Infinite M200 Pro microplate reader (Tecan, Männedorf, Switzerland). Data from linear phase (15 min) were used for data evaluation.

For a further series, the target named is T3, CYP2C19 (Homo sapiens, UniProt P33261).
T3 construct: purchased Thermo Fisher Scientific
T3 sequence (P33261 whole entry): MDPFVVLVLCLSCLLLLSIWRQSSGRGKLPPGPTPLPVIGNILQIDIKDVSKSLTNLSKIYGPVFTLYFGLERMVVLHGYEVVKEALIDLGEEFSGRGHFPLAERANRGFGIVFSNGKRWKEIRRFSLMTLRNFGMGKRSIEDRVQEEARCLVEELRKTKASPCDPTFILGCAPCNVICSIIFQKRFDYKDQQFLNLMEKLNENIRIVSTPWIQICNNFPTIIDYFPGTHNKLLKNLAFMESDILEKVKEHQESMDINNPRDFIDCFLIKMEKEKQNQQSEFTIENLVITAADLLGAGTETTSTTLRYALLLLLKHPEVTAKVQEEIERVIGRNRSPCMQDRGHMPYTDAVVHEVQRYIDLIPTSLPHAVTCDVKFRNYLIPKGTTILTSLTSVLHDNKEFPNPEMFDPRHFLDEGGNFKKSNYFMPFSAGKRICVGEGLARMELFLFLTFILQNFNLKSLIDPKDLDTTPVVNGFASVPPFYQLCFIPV
The series is described as follows: Vivid CYP450 Screening Kit, recombinant CYP2C19. The format is in vitro ADME. The note with it: recombinant enzyme; read-out: CYP2C19 inhibition IC50. The procedure:
as §2

In the next series the test system is HL60-par cells. Description: XTT proliferation / drug combination assay. It counts as cell-based. Conditions: 48 h, read-out: HL60-par IC50. How it is done: (§3) These colorimetric assays were used in various studies presented in this paper (prior induction studies, MDR reversal experiments and comparative viability assays) and were performed as reported previously. […] In MTT experiments, cells were seeded on a 96-well culture plate at densities (in number of cells/well) of 1.3 × 10^4 for MDCKII-par, MDCKII-ABCB1 and MDCKII-ABCG2; 1.2 × 10^4 for A431-par, A431-ABCB1, A431-ABCG2 and A431-ABCC1; 1.2 × 10^4 for NCI-H1299; 1.0 × 10^4 for A459; 2.0 × 10^4 for Caco-2; 5.0 × 10^4 for LS174T; and 1.0 × 10^4 for primary NSCLC explants. On the other hand, for XTT cells were seeded with densities 2.0 × 10^4 for HL60-par, HL60-ABCB1, HL60-ABCG2 and HL60-ABCC1 cells/well on 96-well plates. […] Following 48 h incubation with drugs, Opti-MEM solutions of MTT or XTT (1 mg/mL) with phenazine methosulfate solution (7.50 μg/mL; only for XTT) was added and the cells were incubated for 1 h with the exception of HL60s that were incubated for 5 h.
Based on the computed CI values, the effects of drug combinations were classified as synergistic (CI < 0.9), additive (0.9 < CI < 1.1) or antagonistic (CI > 1.1).

A further series concerns HL60-ABCC1 cells. Description: XTT proliferation assay (comparative viability). It counts as cell-based. The note with it: single drug, 48 h. How it is done:
as §3

For series [1], the system named is KB drug resistant cell lines. The note with it: in vitro KB drug resistant cell lines; cited from earlier work.
Series [2] is described as follows: MTT proliferation / drug combination assay. Conditions: human.
Series [3] can be described thus: XTT proliferation / drug combination assay. Conditions: human. (Tetrazolium dyes change colour on reduction, which living cells bring about.)

ABCC1, sequence (P33527 whole entry): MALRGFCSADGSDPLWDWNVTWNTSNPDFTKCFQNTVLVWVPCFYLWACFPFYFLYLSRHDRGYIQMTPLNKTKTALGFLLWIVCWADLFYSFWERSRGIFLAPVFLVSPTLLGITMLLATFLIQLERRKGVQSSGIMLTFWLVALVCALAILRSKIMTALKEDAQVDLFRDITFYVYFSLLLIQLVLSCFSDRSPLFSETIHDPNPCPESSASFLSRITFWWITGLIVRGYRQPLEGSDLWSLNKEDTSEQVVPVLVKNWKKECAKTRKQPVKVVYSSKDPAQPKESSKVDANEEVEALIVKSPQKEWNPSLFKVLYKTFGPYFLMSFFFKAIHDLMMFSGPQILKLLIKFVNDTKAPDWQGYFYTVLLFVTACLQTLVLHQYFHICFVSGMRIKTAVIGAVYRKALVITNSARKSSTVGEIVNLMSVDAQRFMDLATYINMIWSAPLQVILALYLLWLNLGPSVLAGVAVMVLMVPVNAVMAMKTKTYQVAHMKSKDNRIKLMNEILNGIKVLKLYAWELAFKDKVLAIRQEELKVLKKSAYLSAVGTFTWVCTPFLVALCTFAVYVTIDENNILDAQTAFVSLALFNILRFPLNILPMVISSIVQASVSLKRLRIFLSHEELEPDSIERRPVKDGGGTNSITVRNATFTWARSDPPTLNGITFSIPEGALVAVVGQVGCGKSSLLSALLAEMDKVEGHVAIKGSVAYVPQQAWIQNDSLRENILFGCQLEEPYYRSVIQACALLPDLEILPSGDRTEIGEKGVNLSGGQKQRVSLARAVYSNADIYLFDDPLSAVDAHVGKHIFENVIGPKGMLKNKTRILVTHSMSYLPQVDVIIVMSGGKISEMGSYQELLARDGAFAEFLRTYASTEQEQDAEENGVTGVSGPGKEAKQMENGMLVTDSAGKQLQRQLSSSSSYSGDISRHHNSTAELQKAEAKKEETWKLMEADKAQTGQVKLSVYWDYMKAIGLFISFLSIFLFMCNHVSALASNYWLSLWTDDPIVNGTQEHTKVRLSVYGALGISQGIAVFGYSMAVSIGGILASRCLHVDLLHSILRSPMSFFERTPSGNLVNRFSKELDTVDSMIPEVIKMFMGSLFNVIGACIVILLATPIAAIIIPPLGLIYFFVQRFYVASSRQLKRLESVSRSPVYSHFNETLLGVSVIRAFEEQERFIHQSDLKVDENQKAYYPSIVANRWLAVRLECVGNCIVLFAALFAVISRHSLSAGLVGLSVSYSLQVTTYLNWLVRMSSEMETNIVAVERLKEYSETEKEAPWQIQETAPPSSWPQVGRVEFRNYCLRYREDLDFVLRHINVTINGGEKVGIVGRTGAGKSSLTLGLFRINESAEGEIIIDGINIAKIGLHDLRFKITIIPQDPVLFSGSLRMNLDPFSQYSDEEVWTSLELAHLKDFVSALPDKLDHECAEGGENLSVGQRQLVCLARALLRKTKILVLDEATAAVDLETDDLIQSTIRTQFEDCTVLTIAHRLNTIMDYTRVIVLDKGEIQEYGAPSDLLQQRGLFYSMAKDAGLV

On to `CN1CCC(COc2cnc(-c3cccc(Cn4nc(-c5cccc(C#N)c5)ccc4=O)c3)nc2)CC1` [tepotinib, Tepotinib], for which the pIC50 (usually the negative decadic logarithm of the IC50, by convention in mol/L) was 4.52 at ABCG2 (5 µM mitoxantrone, 1 h, read-out: IC50, relative mitoxantrone accumulation); 4.80 on ABCG2 (8 µM hoechst 33342, read-out: IC50, relative Hoechst 33342 accumulation); 4.61 on ABCC1 (2 µM calcein AM, read-out: IC50, relative calceinAM accumulation); below 4.30 on ABCC1 (2 µM daunorubicin, 1 h, read-out: IC50, relative daunorubicin accumulation); 5.77 at CYP2C9; 4.77 on CYP2C19. Moreover, the pIC50 in the series with HL60-par cells was 4.71; in the series on HL60-ABCC1 cells, 4.70. The “Effect on anticancer effect of paclitaxel and vincristine” value in series [1] was “potentiate the anticancer effect of paclitaxel and vincristine”. For the same molecule, the values for the IC50 at 48 h in series [2] and in [3] were 16.4 µM and 19.6 µM, respectively.
